Patent EP1173217B1, “ENHANCED DELIVERY OF NUCLEIC ACID-BASED DRUGS” (Merrion Research I Limited, priority 1999, dated 2000)
Where two headings read alike, the source gives them in different places.

What was measured:
[1] = tested on: non-differentiated Caco-2 cells
Method: Caco-2 cells were seeded on coverslips treated with polylysine at a concentration of approximately 2.5 - 5x10^5 cells/ml and grown to confluence. Cells were washed once with PBS without Ca^2+, Mg^2+. 1-2 ml of PBS w/o Ca^2+, Mg^2+ containing antisense oligonucleotides +/- enhancers was added and cells were incubated for 30 min at 37°C. Variations to this protocol by pre-incubating cells with enhancers (40min), washing with PBS w/o Ca^2+, Mg^2+ and then incubating with antisense oligonucleotides for 30min were also analysed.
Two different FITC labelled antisense oligonucleotides were used: FITC-labelled ELNG05 (5'-[…]-3'; complementary to a sequence in the human BCR-Abl mRNA) and FITC-labelled S-PTH-05 (5'-[…]-3', complementary to sequence 153-170 of the human HPT1 receptor mRNA). […] The uptake of antisense oligonucleotides was also analysed in the absence of enhancers for variable periods of time (30min - 60min). Following incubation, cells were washed twice with PBS w/o Ca^2+, Mg^2+ and stained with 1µg/ml TexasRed-DHPE (dihexadecanoylglycerophosphoethanolamine, Molecular Probe T-1395) for 15min at 37°C, washed extensively and fixed with paraformaldeyde pH shift (Barcallo, 1995) and mounted for analysis by confocal laser scanning microscopy (CLSM).
After two washes with PBS w/o Ca^2+ and Mg^2+, the cells were incubated with 2ml of FITC-antisense oligonucleotide (ELNG05) at a concentration of 10µM in PBS w/o Ca^2+ and Mg^2+ and incubated at 37°C for 30min.
Caco-2 cells were incubated with 1ml of antisense +/- enhancers in PBS w/o Ca^2+ and Mg^2+ and incubated for 30min at 37°C. Two different fluorescently labelled antisense oligonucleotides were used in these experiments at a concentration of 10µM: ELNG05 (antisense to BCR-Ab1) and S-PTH-05 (antisense to HPT1 receptor). […] The uptake of antisense was also analysed in the absence of enhancers for 30min and 60min as control.

Caco-2 cells = conditions: cationic lipid (lipofectamine): plasmid DNA complex alone set at 100%; β-galactosidase 24 hours post transfection; enhancer concentration not given in the sentence (C8 30 or 5mM, C10 5 or 1mM tested)

## CCCCCCCCCC(=O)[O-].[Na+] [C10, sodium caprate]
[1]; Experiment a, C10 at 10-13mM pre-incubated 40min, then 10µM FITC-ELNG05 30min
  cell permeation / intracellular staining with TexasRed-DHPE and FITC-oligonucleotide (CLSM): permeated completely the cells
[1]; Experiment b, C10 2.6 mM together with 10µM antisense, 30min
  uptake of antisense (CLSM): did not increase the uptake of antisense
[1]; Experiment b, C10 13mM, 30min
  effect on Caco-2 cell adherence: loss of adherence of Caco-2 cells
[1]; Experiment c, C10 8mM with 10µM antisense, 30min
  staining of cells (CLSM): only punctate staining, similar to the control
[1]; Experiment c, C10 10mM with 10µM antisense, 30min
  staining of cells (CLSM): completely stained
[1]; Experiment c, C10 between 13mM and 8mM, 30min
  effect on cells: destruction of cells
Caco-2 cells
  efficiency of transfection: 245%
